Assay results as given in patent US20160120889A1, “LIFESPAN EXTENDING AGENT” (priority 2011, published 2016).

What was measured:
[1] = system: wild-type N2 strain of the nematode Caenorhabditis elegans; assay: Nematode survival rate and average lifespan, wild-type N2; assay type: in vivo
Description: The wild-type N2 strain of the nematode Caenorhabditis elegans was used.
(§1) Complete S liquid medium (Sulston, J. E. and Brenner, S. (1974) Genetics 77, 95-104) was used for the culturing of the nematode. D-psicose or D-allose was added to the medium in 0.25% (14 mM) and 0.5% (28 mM). The Escherichia coli (E. coli) OP50 strain was added in 30 mg (wet weight/mL) to feed the worms. To exclude the effects of the germ cells on lifespan, the cell division inhibitor 2′-deoxy-5-fluorouridine (40 μM) was added.
(§2) Young worms, 4 days of age, were used for the measurements of survival rate and average lifespan. The prepared liquid medium was dispensed onto ten plastic petri dishes having a diameter of 3.5 cm (2 mL each). Ten nematodes were transferred to each petri dish (a total of 100 individuals), and cultured at 20° C. The samples were inoculated into a new medium every day until day 3, and every 2 to 3 days thereafter. Observations were made at the time of the inoculation, and the number of survived individuals was recorded.
(§3) The wild-type N2 strain of the nematode Caenorhabditis elegans was cultured, and lifespan was measured in the same manner as in Example 1, except that the D-psicose was used in 0.5% (w/v). […] The average lifespan with 0.5% D-psicose was 27 days, longer than the 23-day lifespan of the D-psicose-free control.

[2] = system: SOD gene (Mn-SOD sod-3, Cu/Zn-SOD) in mev-1; assay: SOD mRNA gene expression in mev-1 (real time quantitative RT-PCR); assay type: in vivo, Caenorhabditis elegans
Description: (§4) The wild-type N2 and the oxygen sensitive mutant mev-1 of the nematode Caenorhabditis elegans were cultured in liquid medium (10 mL) containing 0.5% (w/v) D-psicose. The medium was dispensed onto plastic petri dishes having a diameter of 10 cm, and approximately 1,000 nematodes were placed in each petri dish. The nematodes were cultured in the same manner as in Example 1 except for these differences, and the samples were collected on day 6 from the start of the culturing. FIG. 5 represents the results of the comparison of SOD mRNA gene expression levels. For comparison, the RNA gene levels of mitochondria Mn-SOD and cytosol Cu/Zn-SOD were measured.

[3] = system: catalase activity in N2; assay: Catalase activity in lysate of N2; assay type: in vivo, Caenorhabditis elegans; details: N2, 0.5% (w/v), day 7, FIG. 8
Description: as §4
The wild-type N2 of the nematode Caenorhabditis elegans was grown in the same manner as in Example 4. The samples were collected on day 7 from the start of the culturing, and the catalase activity in the lysate was measured.

[4] = system: SOD activity in N2; assay: SOD activity in lysate of N2; assay type: in vivo, Caenorhabditis elegans; details: N2, 0.5% (w/v)
Description: as §4
(§5) The wild-type N2 and the oxygen sensitive mutant mev-1 of the nematode Caenorhabditis elegans were grown in the same manner as in Example 4. The samples were collected on day 7 from the start of the culturing, and the SOD activity in the lysate was measured.

[5] = system: SOD activity in mev-1; assay: SOD activity in lysate of mev-1; assay type: in vivo, Caenorhabditis elegans; details: mev-1, 0.5% (w/v)
Description: as §4, §5

[6] = system: SOD gene (mitochondria Mn-SOD, cytosol Cu/Zn-SOD) in N2; assay: SOD mRNA gene expression in N2 (real time quantitative RT-PCR); assay type: in vivo, Caenorhabditis elegans; details: N2, 0.5% (w/v), day 6, FIG. 5
Description: as §4

[7] = system: oxygen sensitive mutant mev-1 of the nematode Caenorhabditis elegans; assay: Nematode average lifespan, oxygen sensitive mutant mev-1; assay type: in vivo; details: mev-1, 0.25%, Example 3; control 12 days
Description: as §1, §2
as §3, with “oxygen sensitive mutant mev-1” for “wild-type N2 strain”, “0.25%.” for “0.5% (w/v).”, “0.25%” for “0.5%”, “16” for “27”, “12-day” for “23-day”

[8] = system: catalase genes ctl-1, ctl-2 in N2; assay: Catalase mRNA gene expression in N2; assay type: in vivo, Caenorhabditis elegans; details: N2, 0.5% (w/v), day 6
Description: as §4
The wild-type N2 and the oxygen sensitive mutant mev-1 of the nematode Caenorhabditis elegans were cultured in the same manner as in Example 4. The samples were collected on day 6 from the start of the culturing, and the catalase mRNA gene expression levels were compared. For comparison, the RNA gene levels of cytosol ctl-1 and peroxisome CTL-2 were measured.

In the case of O=C[C@H](O)[C@H](O)[C@H](O)[C@H](O)CO [D-allose], the average lifespan ([1]; N2, 0.5% (28 mM) in medium, 20° C., Example 1, control 12.5 days) is reported as 15.8 days and the “increase in average lifespan vs control” value ([1]; N2, 0.5% in medium, Example 1) is reported as 26%.
For O=C(CO)[C@H](O)[C@H](O)[C@H](O)CO [D-psicose], the “SOD mRNA gene expression level” value ([2]; mev-1, 0.5% (w/v), day 6, FIG. 5) was “increased expression”, the “increase in expression level of Mn-SOD (sod-3) gene” value ([2]; mev-1, real time quantitative RT-PCR, 0.5% (w/v), day 6) was 1.7 fold and the “catalase activity in the lysate” value [3] was “increased catalase activity”. The “increase in SOD enzyme activity” value ([4]; day 7) was 1.5 fold, the “SOD activity in the lysate” value ([4]; day 7, FIG. 6) was “increased SOD activity” and the “increase in SOD enzyme activity” value ([5]; day 7) was 1.3 fold. For the same molecule, the “SOD activity in the lysate” value ([5]; day 7, FIG. 6) was “increased SOD activity”, the average lifespan ([1]; N2, 0.25% (14 mM) in medium, 20° C., Example 1, control 15.8 days) was 18.9 days and the “increase in average lifespan vs control” value ([1]; N2, 0.25% in medium, Example 1) was 20%. For the same molecule, the lifespan extension ([1]; N2, 0.5% (w/v)) was 17%, the average lifespan ([1]; N2, 0.5% (w/v), Example 2, control 23 days) was 27 days and the “SOD mRNA gene expression level” value [6] was “increased expression”. The average lifespan [7] was 16 days and the “increase in gene expression levels of cytoplasm-localized catalase and peroxisome catalases (ctl-1, ctl-2)” value [8] was 1.5 fold.
